Assay results reported in ChEMBL document CHEMBL5584291, “Rational design of small-sized peptidomimetic inhibitors disrupting protein-protein interaction” (RSC Med Chem, 2024).
Each block holds one compound with its values, some of them ahead of it. *1 amine or outer side, *2 acyl side, *3 side chain or, on linkers, in order; H or OH if unused. Where a SMILES comes first, the peptide text is derived from it. Bridges are numbered along the chain shown (N, C = ends). [ ]: non-standard residue; d: D form. The star is where a group is joined. ξ: configuration not given here. X2 = c1ccc(-c2cn(CC3CCCCC3)c([C@@H]3CCCN3*)n2)cc1; dαMeDab = C[C@](CCN[*:3])(N[*:1])C(=O)[*:2]; X1 = NC(CO)C(=O)NC(Cc1ccccc1)C(=O)NCCCCN*; Ala(cPent) = N[C@@H](CC1CCCC1)C(=O)O; Arg(Me) = CNC(=N)NCCC[C@H](N)C(=O)O; d(αMeK) = C[C@@](N)(CCCCN)C(=O)O; Pentanoyl(4-Me) = CC(C)CCC(=O)*; dPhg = N[C@@H](C(=O)O)c1ccccc1; Isobutyryl = CC(C)C(=O)*; ξE = NC(CCC(=O)O)C(=O)O; Abu = CC[C@H](N)C(=O)O; Dap = NC[C@H](N)C(=O)O

Tests used:
Splenocyte = test: Inhibition of mouse splenocyte proliferation at 100 nM relative to control; type: functional
[1] = target: Programmed cell death protein 1/Programmed cell death 1 ligand 1 (Homo sapiens, UniProt Q15116+Q9NZQ7); test: Inhibition of PD-1/PD-L1 (unknown origin) protein-protein interaction by HTRF assay; type: protein-complex assay
Chain of Programmed cell death protein 1/Programmed cell death 1 ligand 1 (Q15116 whole entry): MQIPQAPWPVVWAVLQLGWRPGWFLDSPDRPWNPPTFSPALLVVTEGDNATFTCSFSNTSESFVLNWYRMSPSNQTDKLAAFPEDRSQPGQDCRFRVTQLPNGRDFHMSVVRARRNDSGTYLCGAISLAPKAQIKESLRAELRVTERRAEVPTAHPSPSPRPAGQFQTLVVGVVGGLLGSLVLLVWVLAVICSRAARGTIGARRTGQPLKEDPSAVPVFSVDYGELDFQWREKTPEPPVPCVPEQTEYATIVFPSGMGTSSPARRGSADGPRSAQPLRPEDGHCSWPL
Chain of Programmed cell death protein 1/Programmed cell death 1 ligand 1 (Q9NZQ7 whole entry): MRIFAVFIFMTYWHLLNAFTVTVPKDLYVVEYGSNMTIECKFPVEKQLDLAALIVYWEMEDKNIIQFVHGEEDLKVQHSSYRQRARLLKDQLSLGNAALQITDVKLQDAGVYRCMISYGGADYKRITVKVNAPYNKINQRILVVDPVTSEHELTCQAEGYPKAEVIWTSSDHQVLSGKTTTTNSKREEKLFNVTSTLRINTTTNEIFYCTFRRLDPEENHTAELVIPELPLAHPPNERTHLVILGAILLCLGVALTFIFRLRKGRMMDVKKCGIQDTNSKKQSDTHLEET

B16-F10 = test: Antitumor activity against mouse B16-F10 cells xenografted in C57BL/6 mouse assessed as reduction in lung metastasis at 5 mg/kg, ip administered once daily for 14 days relative to control; type: functional; design: scale not given: the % may be the effect or the level left; details: time 14 day
[2] = Inhibition of human full length WDR5/RbBP5 (1 to 538 residues)/ASH2L (1 to 635 residues) expressed in Rosetta2 BL21 (DE3) pLysS incubated for 90 mins by SPA based histone methyltransferase assay
[3] = target: Histone-lysine N-methyltransferase, H3 lysine-79 specific (Homo sapiens, UniProt Q8TEK3); test: Binding affinity to DOT1L (unknown origin) assessed as inhibition constant
Chain of Histone-lysine N-methyltransferase, H3 lysine-79 specific (Q8TEK3 whole entry): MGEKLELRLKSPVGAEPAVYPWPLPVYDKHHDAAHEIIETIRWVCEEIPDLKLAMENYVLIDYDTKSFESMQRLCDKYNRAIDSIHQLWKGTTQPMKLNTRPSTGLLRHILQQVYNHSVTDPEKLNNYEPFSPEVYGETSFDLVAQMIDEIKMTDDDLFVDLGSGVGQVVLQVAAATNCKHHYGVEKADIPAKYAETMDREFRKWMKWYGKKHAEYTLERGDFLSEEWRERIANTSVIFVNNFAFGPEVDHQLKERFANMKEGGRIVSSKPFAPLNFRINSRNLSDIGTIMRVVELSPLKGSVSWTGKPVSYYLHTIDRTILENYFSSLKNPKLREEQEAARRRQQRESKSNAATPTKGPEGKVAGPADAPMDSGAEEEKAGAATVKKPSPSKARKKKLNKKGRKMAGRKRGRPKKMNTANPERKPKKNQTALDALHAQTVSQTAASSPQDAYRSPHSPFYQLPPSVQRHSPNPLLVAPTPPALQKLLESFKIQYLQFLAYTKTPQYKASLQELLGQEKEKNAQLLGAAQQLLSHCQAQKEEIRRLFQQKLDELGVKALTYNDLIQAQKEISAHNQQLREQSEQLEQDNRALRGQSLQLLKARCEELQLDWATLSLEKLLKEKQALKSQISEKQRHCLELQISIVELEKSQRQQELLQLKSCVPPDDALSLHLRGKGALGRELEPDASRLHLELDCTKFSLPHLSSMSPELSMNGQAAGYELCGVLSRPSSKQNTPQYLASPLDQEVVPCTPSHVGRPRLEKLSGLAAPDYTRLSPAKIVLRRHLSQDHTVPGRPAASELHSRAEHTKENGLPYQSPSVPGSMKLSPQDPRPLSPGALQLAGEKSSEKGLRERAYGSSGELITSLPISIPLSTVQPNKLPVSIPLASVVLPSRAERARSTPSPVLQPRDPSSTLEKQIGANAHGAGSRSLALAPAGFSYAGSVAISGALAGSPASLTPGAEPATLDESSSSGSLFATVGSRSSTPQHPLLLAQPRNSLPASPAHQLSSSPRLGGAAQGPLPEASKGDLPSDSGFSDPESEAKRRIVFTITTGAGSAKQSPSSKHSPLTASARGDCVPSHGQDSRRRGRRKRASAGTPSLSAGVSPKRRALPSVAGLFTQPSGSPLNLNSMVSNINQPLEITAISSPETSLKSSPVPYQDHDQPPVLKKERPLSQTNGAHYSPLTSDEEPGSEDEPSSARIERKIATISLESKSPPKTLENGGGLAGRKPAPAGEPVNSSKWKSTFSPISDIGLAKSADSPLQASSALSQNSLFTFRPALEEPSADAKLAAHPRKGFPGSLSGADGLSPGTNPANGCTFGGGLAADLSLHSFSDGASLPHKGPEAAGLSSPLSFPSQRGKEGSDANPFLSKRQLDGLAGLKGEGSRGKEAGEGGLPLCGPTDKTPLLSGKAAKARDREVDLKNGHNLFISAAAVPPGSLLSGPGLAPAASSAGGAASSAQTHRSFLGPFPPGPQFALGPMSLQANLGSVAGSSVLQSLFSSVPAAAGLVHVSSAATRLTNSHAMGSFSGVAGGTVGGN

SMILES: NCCCC[C@H](NC(=O)N[C@@H](CC(N)=O)C(=O)NNC(=O)[C@@H](N)CO)C(=O)O
inhibition at 0.1 µM (Splenocyte): 87%

SMILES: C[C@H](O)[C@H](NC(=O)N[C@@H](CC(N)=O)C(=O)NNC(=O)[C@@H](N)CO)C(=O)O
inhibition at 0.1 µM (Splenocyte): 68%

SMILES: CC(O)[C@H](NC(=O)N[C@@H](CC(N)=O)C1NC([C@@H](N)CO)=NO1)C(=O)O (stereo partly drawn)
IC50 [1]: 17 nM

SMILES: C[C@@H](O)[C@@H]1NCC(=O)C(NC(=O)[C@@H](N)CO)CCC(=O)NCCCCC(C(=O)N[C@@H](CO)C(=O)N[C@@H](Cc2ccccc2)C(N)=O)NC(=O)[C@H](CO)NC1=O (stereo partly drawn)
Activity (B16-F10): 54%

SMILES: C[C@@H](O)[C@H](NC(=O)[C@H](CC(N)=O)NC(=O)[C@@H](N)CO)C(=O)N[C@@H](CO)C(=O)NC(CCC(=O)NCCCCNC(=O)C(Cc1ccccc1)NC(=O)C(N)CO)C(N)=O (stereo partly drawn) (H-SNTS[ξE](X1)-NH2)
Activity (B16-F10): 4%

IC50 [2]: 0.9 nM
SMILES: CC[C@@H]1NC(=O)[C@H](CCCNC(=N)N)NC(=O)[C@](C)(NC(=O)C(C)C)CCCCNC(=O)[C@@H](c2ccccc2)NC1=O (Isobutyryl-[d(αMeK)]R[Abu][dPhg]; lactam 1-C)

IC50 [2]: 0.9 nM
SMILES: CC[C@@H]1NC(=O)[C@H](CCCNC(=N)NC)NC(=O)[C@](C)(NC(=O)C(C)C)CCNC(=O)[C@@H](c2ccccc2)NC1=O (Isobutyryl-[dαMeDab][Arg(Me)][Abu][dPhg]; lactam 1-C)

Ki [3]: 23 nM
SMILES: CC(C)CCC(=O)N1CCC[C@H]1C(=O)N[C@H](C(=O)N[C@@H](CN)C(=O)N[C@@H](CC1CCCC1)C(=O)N1CCC[C@H]1c1nc(-c2ccccc2)cn1CC1CCCCC1)C(C)C ({Pentanoyl(4-Me)}-PV[Dap][Ala(cPent)]-X2)
